In patent US9101136B2, “Synergistic herbicide/fungicide composition containing certain pyridine carboxylic acids and certain fungicides” (Dow AgroSciences LLC, priority 2010, dated 2015):
Read-outs that look alike come from different tables or passages of the source.

How the values were obtained:
Assay type in all cases: in vivo
[1] = test system: Russian thistle (Salsola iberica L; SASKR); assay: Postemergence herbicidal activity of mixtures on Russian thistle; details: for SASKR Ob (observed control): alone
Description: (§1) Seeds of the desired test plant species were planted in Sun Gro MetroMix 306 planting mixture, which typically has a pH of 6.0 to 6.8 and an organic matter content of about 30 percent, in plastic pots with a surface area of 103.2 square centimeters (cm^2). When required to ensure good germination and healthy plants, a fungicide treatment and/or other chemical or physical treatment was applied. The plants were grown for 7-36 days (d) in a greenhouse with an approximate 14-hour (h) photoperiod which was maintained at about 18° C. during the day and 17° C. during the night. Nutrients and water were added on a regular basis and supplemental lighting was provided with overhead metal halide 1000-Watt lamps as necessary. The plants were employed for testing when they reached the second or third true leaf stage.
(§2) Treatments consisted of a cereal fungicide compound (as listed in Tables 1 through 34) and the cereal herbicide, 4-amino-3-chloro-6-(4-chloro-2-fluoro-3-methoxyphenyl)pyridine-2-carboxylic acid, alone and in combination. Weighed amounts of acid, esters (methyl) or salts (triethylammonium, TEA) of 4-amino-3-chloro-6-(4-chloro-2-fluoro-3-methoxyphenyl)pyridine-2-carboxylic acid (Compound I) were placed in 25 milliliter (mL) glass vials and dissolved in a volume of 97:3 volume-to-volume (v/v) acetone/dimethyl sulfoxide (DMSO) to obtain 4.5 milligrams active ingredient per milliliter (mg ai/mL) concentrated solutions. […] The concentrated solutions of Compound I were diluted to 1.5 mg ai/mL with the addition of 2 volumes of an aqueous mixture containing acetone, water, isopropyl alcohol, DMSO, Agri-dex crop oil concentrate, and Triton® X-77 surfactant in a 64.7:26.0:6.7:2.0:0.7:0.01 v/v ratio. A dilution solution was prepared by mixing 1 volume of 97:3 v/v acetone/DMSO and 2 volumes of an aqueous mixture containing acetone, water, isopropyl alcohol, DMSO, Agri-dex crop oil concentrate, and Triton® X-77 surfactant in a 64.7:26.0:6.7:2.0:0.7:0.01 v/v ratio. Compound requirements are based upon a 12 mL application volume at a rate of 187 liters per hectare (L/ha). The concentrated solutions of the cereal fungicides were prepared following the same procedure. Weighed amounts of fungicide were placed in 25 mL glass vials and dissolved in a volume of 97:3 v/v acetone/DMSO to obtain concentrated fungicide solutions. The concentrated solutions of the safener were prepared following the same procedure. Weighed amounts of safener were placed in 25 mL glass vials and dissolved in a volume of 97:3 v/v acetone/DMSO to obtain concentrated safener solutions.
(§3) Spray solutions of the cereal herbicide and the fungicidal compound mixtures were prepared by adding the concentrated solutions to the appropriate amount of dilution solution to form 12 mL spray solution with active ingredients in combinations. Spray solutions of the cereal herbicide, herbicide safener and the fungicidal compound mixtures were prepared by adding the concentrated solutions to the appropriate amount of dilution solution to form 12 mL spray solution with active ingredients in combinations.
(§4) Formulated compounds were applied to the plant material with an overhead Mandel track sprayer equipped with 8002E nozzles calibrated to deliver 187 L/ha over an application area of 0.503 square meters (m^2) at a spray height of 18 inches […] above average plant canopy. Control plants were sprayed in the same manner with the solvent blank.
(§5) The treated plants and control plants were placed in a greenhouse as described above and watered by sub-irrigation to prevent wash-off of the test compounds. After 20-22 d, the condition of the test plants as compared with that of the control plants was determined visually and scored on a scale of 0 to 100 percent where 0 corresponds to no injury and 100 corresponds to complete kill. […]

[2] = test system: wild pansy (Viola tricolor L; VIOTR); assay: Postemergence herbicidal activity of mixtures on wild pansy
Description: as §1, §2, §3, §4, §5

[3] = test system: scented mayweed (Matricaria chamomila L; MATCH); assay: Postemergence herbicidal activity of mixtures on scented mayweed; details: for MATCH Ob (observed control): alone
Description: as §1, §2, §3, §4, §5

[4] = test system: bird's-eye speedwell (Veronica persica L; VERPE); assay: Postemergence herbicidal activity of mixtures on bird's-eye speedwell; details: for VERPE Ob (observed control): alone
Description: as §1, §2, §3, §4, §5

[5] = test system: kochia (Kochia scoparia L; KCHSC); assay: Postemergence herbicidal activity of mixtures on kochia; design: KCHSC Ob: unit: %; details: for KCHSC Ob (observed control): alone
Description: as §1, §2, §3, §4, §5

CCCN(CCOc1c(Cl)cc(Cl)cc1Cl)C(=O)n1ccnc1 [Prochloraz, N-propyl-N-[2-(2,4,6-trichlorophenoxy)ethyl]-1H-imidazole-1-carboxamide]
0%: pest or weed control at 101.25 g/ha ([1]; Salsola tragus, post-emergence, read-out: SASKR Ob) | pest or weed control at 101.25 g/ha ([2]; Viola tricolor, post-emergence, read-out: VIOTR Ob) | pest or weed control at 101.25 g/ha ([3]; Matricaria, post-emergence, read-out: MATCH Ob) | pest or weed control at 101.25 g/ha ([4]; Veronica persica, post-emergence, read-out: VERPE Ob) | pest or weed control at 101.25 g/ha ([5]; Bassia scoparia, post-emergence, read-out: KCHSC Ob)

CCCC1COC(Cn2cncn2)(c2ccc(Cl)cc2Cl)O1 (stereo not shown) [Propiconazole, 1-[[2-(2,4-dichlorophenyl)-4-propyl-1,3-dioxolan-2-yl]methyl]-1H-1,2,4-triazole]
0%: pest or weed control at 31.25 g/ha ([1]; Salsola tragus, post-emergence, fungicide 31.25 g/ha alone, read-out: SASKR Ob) | pest or weed control at 31.25 g/ha ([2]; Viola tricolor, post-emergence, fungicide 31.25 g/ha alone, read-out: VIOTR Ob) | pest or weed control at 31.25 g/ha ([3]; Matricaria, post-emergence, fungicide 31.25 g/ha alone, read-out: MATCH Ob) | pest or weed control at 31.25 g/ha ([4]; Veronica persica, post-emergence, fungicide 31.25 g/ha alone, read-out: VERPE Ob) | pest or weed control at 31.25 g/ha ([5]; Bassia scoparia, post-emergence, fungicide 31.25 g/ha alone, read-out: KCHSC Ob)

Fc1ccc(Oc2ccnc3cc(Cl)cc(Cl)c23)cc1 [Quinoxyfen, 5,7-dichloro-4-(4-fluorophenoxy)quinoline]
0%: SASKR Ob (observed control) ([1]; 37.5 g/ha) | pest or weed control at 37.5 g/ha ([2]; Viola tricolor, post-emergence, alone, 37.5 g/ha, read-out: VIOTR Ob (observed control)) | pest or weed control at 37.5 g/ha ([2]; Viola tricolor, post-emergence, fungicide 37.5 g/ha alone, read-out: VIOTR Ob) | MATCH Ob (observed control) ([3]; 37.5 g/ha) | VERPE Ob (observed control) ([4]; 37.5 g/ha) | pest or weed control at 37.5 g/ha ([5]; Bassia scoparia, post-emergence, fungicide 37.5 g/ha alone, read-out: KCHSC Ob) | KCHSC Ob (observed control) ([5]; 37.5 g/ha)

CO/N=C(/C(=O)OC)c1ccccc1CO/N=C(\C)c1cccc(C(F)(F)F)c1 [Trifloxystrobin, methyl (αE)-α-(methoxyimino)-2-[[[[(1E)-1-[3-(trifluoromethyl)phenyl]ethylidene]amino]oxy]methyl]benzeneacetate]
0%: SASKR Ob (observed control) ([1]; 62.5 g/ha) | pest or weed control at 62.5 g/ha ([2]; Viola tricolor, post-emergence, alone, 62.5 g/ha, read-out: VIOTR Ob (observed control)) | MATCH Ob (observed control) ([3]; 62.5 g/ha) | VERPE Ob (observed control) ([4]; 62.5 g/ha) | KCHSC Ob (observed control) ([5]; 62.5 g/ha)

CCCCCC(C)OC(=O)COc1ccc(Cl)c2cccnc12 (stereo not shown) [cloquintocet-mexyl]
0%: SASKR Ob (observed control) ([1]; 4.4 g/ha) | SASKR Ob (observed control) ([1]; 35 g/ha) | pest or weed control at 4.4 g/ha ([2]; Viola tricolor, post-emergence, alone, 4.4 g/ha, read-out: VIOTR Ob (observed control)) | pest or weed control at 35 g/ha ([2]; Viola tricolor, post-emergence, alone, 35 g/ha, read-out: VIOTR Ob (observed control)) | MATCH Ob (observed control) ([3]; 4.4 g/ha) | MATCH Ob (observed control) ([3]; 35 g/ha) | VERPE Ob (observed control) ([4]; 4.4 g/ha) | VERPE Ob (observed control) ([4]; 35 g/ha) | KCHSC Ob (observed control) ([5]; 4.4 g/ha) | KCHSC Ob (observed control) ([5]; 35 g/ha)

[[2-[(dithiocarboxy)amino]ethyl]carbamo-dithioato(2^−)-κS,κS′]manganese mixture with [[2-[(dithiocarboxy)amino]ethyl]carbamo-dithioato(2^−)-κS,κS′]zinc [Mancozeb]
0%: SASKR Ob ([1]; fungicide 281.25 g/ha alone) | VIOTR Ob ([2]; fungicide 281.25 g/ha alone) | MATCH Ob ([3]; fungicide 281.25 g/ha alone) | VERPE Ob ([4]; fungicide 281.25 g/ha alone) | KCHSC Ob ([5]; fungicide 281.25 g/ha alone)
